According to article PMC8428848, “Ancient role of sulfakinin/cholecystokinin-type signalling in inhibitory regulation of feeding processes revealed in an echinoderm” (eLife, 2021):
Square brackets hold non-standard residues; d marks the D form. Peptide text beside a SMILES is read from it. sY = N[C@@H](Cc1ccc(OS(=O)(=O)O)cc1)C(=O)O; pGlu = O=C1CC[C@@H](C(=O)O)N1

Columns and labels:
ArSK/CCKR = target: T1, ArSK/CCKR (Asterias rubens, UniProt A0A8F2ZGB9); assay: Aequorin bioluminescence receptor assay in CHO-K1 cells (G5A) co-transfected with ArSK/CCKR and human Gα16; type: cell-based; conditions: for EC50: luminescence as % of maximal response, four to six independent transfections, two to three replicates each, 3 × 10^−17 to 10^−4 M
T1 sequence (A0A8F2ZGB9 1-434): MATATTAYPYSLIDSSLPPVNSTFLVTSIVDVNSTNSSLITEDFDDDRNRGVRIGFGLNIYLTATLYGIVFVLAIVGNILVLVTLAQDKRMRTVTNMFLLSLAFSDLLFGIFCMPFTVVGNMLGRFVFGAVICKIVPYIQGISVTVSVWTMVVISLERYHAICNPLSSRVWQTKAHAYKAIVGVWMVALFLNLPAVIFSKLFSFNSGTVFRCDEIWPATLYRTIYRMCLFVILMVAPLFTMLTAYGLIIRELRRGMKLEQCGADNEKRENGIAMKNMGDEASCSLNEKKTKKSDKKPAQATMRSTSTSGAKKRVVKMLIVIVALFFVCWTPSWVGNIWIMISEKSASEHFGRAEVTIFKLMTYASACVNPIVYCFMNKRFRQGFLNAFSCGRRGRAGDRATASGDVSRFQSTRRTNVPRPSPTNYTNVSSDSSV
Text: To enable testing of ArSK/CCK1 and ArSK/CCK2 as candidate ligands for ArSK/CCKR, a full-length cDNA encoding ArSK/CCKR was synthesized by GenScript (Piscataway, NJ) and cloned into pcDNA 3.1+ vector (Invitrogen, Thermo Fisher Scientific, Waltham, MA). A partial Kozak translation initiation sequence (CACC) was introduced upstream to the start codon (ATG). CHO-K1 cells stably expressing the mitochondrial targeted calcium-sensitive bioluminescent reporter GFP-aequorin fusion protein (G5A) ([Baubet et al., 2000]) were used as a heterologous expression system for ArSK/CCKR. These cells have been used previously for neuropeptide receptor deorphanisation ([Bauknecht and Jékely, 2015]) and were generously supplied to us by Dr Gáspár Jékely (University of Exeter). The cell line was generated using the CHO-K1 cell line from Sigma-Aldrich (85051005; RRID: CVCL_0214), which is certified by the European Collection of Authenticated Cell Cultures (ECACC), and expression of the GFP-aequorin fusion protein (G5A) in the cell line was determined by functionality in displaying calcium-activated luminescence. […] Cells were cultured, co-transfected with the pcDNA 3.1+ vector containing the ArSK/CCKR cDNA sequence and plasmids encoding the promiscuous human G-protein Gα16. Then bioluminescence-based receptor assays were performed, as described previously for A. rubens luqin-type receptors ([Yañez-Guerra et al., 2018]).
[…] Concentration-response data were determined as a percentage of the highest response for each peptide (100% activation). EC50 values were calculated from concentration-response curves based on four to six independent transfections and averaging two to three replicates in each transfection using Prism 6.0 (RRID:SCR_002798; GraphPad software, La Jolla, CA). Cells transfected with an empty vector were used for control experiments.

[1] = system: cardiac stomach preparations; assay: In vitro contraction of cardiac stomach preparations (organ bath); parameters: species or system Asterias rubens; conditions: for contraction of cardiac stomach preparations: in vitro, 1 nM to 1 μM, n = 5–9; for effect compared with NGFFYamide (100 nM): peptide 1 µM, Student's t-test p > 0.05, data not shown
Protocol: (§1) Effects of peptides on preparations were tested and recorded using an isotonic transducer (MLT0015, ADInstruments Pty Ltd) connected to a bridge amplifier (FE221 Bridge Amp, ADInstruments Pty Ltd) linked to PowerLab data acquisition hardware (2/36, ADInstruments Pty Ltd). Data were collected and analysed using LabChart (RRID:SCR_017551; v8.0.7) software installed on a laptop computer (Lenovo E540, Windows 7 Professional). Stock solutions of synthetic peptides were prepared in distilled water and added to the organ bath to achieve final concentrations ranging from 0.1 nM to 1 μM. To assess the viability of preparations and to enable normalization of responses to ArSK/CCK1 or ArSK/CCK2, the starfish neuropeptide NGFFYamide (100 nM) was tested on cardiac stomach preparations and acetylcholine (10 µM) was tested on tube foot and apical muscle preparations. To assess the importance of tyrosine sulphation for peptide bioactivity, a non-sulphated analog of ArSK/CCK2 (ArSK/CCK2(ns)) was also tested on cardiac stomach (n = 5), tube foot, and apical muscle preparations (data not shown).

[2] = system: apical muscle preparations; assay: In vitro contraction of apical muscle preparations (organ bath); parameters: species or system Asterias rubens; conditions: for contracting action on apical muscle, % of the effect of 10 µM acetylcholine: highest concentration tested (1 µM), n = 20–23; for contraction of apical muscle preparations: in vitro
Protocol: as §1

[3] = system: affinity-purified rabbit antibodies to ArSK/CCK1; assay: ELISA specificity test of affinity-purified antibodies to ArSK/CCK1; type: binding; conditions: TEA fraction diluted 1:10; peptide 0.1 nmol (100 µl of 1 µM); mean of six replicates
Text: To generate antibodies to ArSK/CCK1, an N-terminally truncated peptide analog of ArSK/CCK1 with the addition of a reactive N-terminal lysine residue was synthesized (KY(SO3H)GHGLFW-NH2 , Peptide Protein Research Ltd, Fareham, UK). To generate antibodies to ArSK/CCKR, a peptide corresponding to the C-terminal 15 amino acids of ArSK/CCK-R with addition of an N-terminal reactive lysine residue was synthesized (KPSPTNYTNVSSDSSV, Peptide Protein Research Ltd, Fareham, UK). These peptides were conjugated to porcine thyroglobulin (Sigma-Aldrich, Gillingham, UK) as a carrier protein using 5% glutaraldehyde (Sigma-Aldrich, Gillingham, UK) in phosphate buffer (0.1 M; pH 7.2) and the conjugate was used for immunisation of a rabbit for ArSK/CCK1 (70-day protocol; Charles River Biologics, Romans, France) and a guinea pig for ArSK/CCKR (56-day protocol; Charles River Biologics, Romans, France). The antigens were emulsified in Freund’s complete adjuvant for primary immunisations (~100 nmol antigen peptide) and in Freund’s incomplete adjuvant for three booster immunisations (~50 nmol antigen peptide). The presence of antibodies to the antigen peptides in post-immunisation serum samples was assessed using an enzyme-linked immunosorbent assay (ELISA), in comparison with pre-immune serum (Figure 5—figure supplement 1a; Figure 6—figure supplement 1). Antibodies to the antigen peptides were purified from the final bleed antiserum by affinity purification using the AminoLink Plus Immobilization Kit (Thermo Fisher Scientific, Waltham, MA), with bound antibodies eluted using glycine elution buffer (6.3 ml of 100 mM glycine [VWR Chemicals, Leicestershire, UK] and 0.7 ml of Tris [1 M, pH = 7.0]) and […] (TEA) elution buffer (6.3 ml of TEA [Sigma-Aldrich, Gillingham, UK] and 0.7 ml of Tris [1 M, pH = 7.0]). Eluates were dialyzed and sodium azide (0.1%) was added for long-term storage of the affinity-purified antibodies at 4°C. The specificity of ArSK/CCK1 antibodies eluted with TEA, which were subsequently used for immunohistochemistry (see below), was assessed by ELISA by testing them at a concentration of 1:10 with the following synthetic peptides (100 µl at a concentration of 1 µM dissolved in carbonate/bicarbonate buffer [25 mM sodium carbonate, 25 mM sodium bicarbonate, pH = 9.8]): ArSK/CCK1, ArSK/CCK2, ArSK/CCK2(ns) and the A. rubens luqin-type peptide ArLQ (Figure 5—figure supplement 1b). The rabbit antiserum to ArSK/CCK1 has been assigned the RRID:AB_2877176 and the guinea pig antiserum to ArSK/CCKR has been assigned the RRID:AB_2891354.

Row | SMILES | EC50 (ArSK/CCKR) | contraction of cardiac stomach preparations [1] | effect compared with NGFFYamide (100 nM) [1] | contracting action on apical muscle, % of the effect of 10 µM acetylcholine [2] | contraction of apical muscle preparations [2] | ELISA reactivity (optical density) with antibodies to ArSK/CCK1 [3] | potency as ligand for ArSK/CCKR compared with ArSK/CCK1 and ArSK/CCK2 (ArSK/CCKR; from EC50 values)
1 | CC(C)C[C@H](NC(=O)CNC(=O)[C@H](Cc1c[nH]cn1)NC(=O)CNC(=O)[C@H](Cc1ccc(OS(=O)(=O)O)cc1)NC(=O)[C@H](CC(=O)O)NC(=O)[C@H](CC(=O)O)NC(=O)[C@@H](NC(=O)[C@H](CCCCN)NC(=O)[C@H](CO)NC(=O)[C@@H]1CCC(=O)N1)C(C)C)C(=O)N[C@@H](Cc1ccccc1)C(=O)N[C@@H](Cc1c[nH]c2ccccc12)C(N)=O [ArSK/CCK1] ([pGlu]SKVDD[sY]GHGLFW-NH2) | 0.25 nM | concentration-dependent contraction | not significantly different | ~ 40% | caused contraction | above the OD value for the negative control | 
2 | CC(C)C[C@H](NC(=O)CNC(=O)[C@H](Cc1ccccc1)NC(=O)CNC(=O)[C@H](Cc1ccc(OS(=O)(=O)O)cc1)NC(=O)[C@H](CCC(N)=O)NC(=O)[C@H](CC(=O)O)NC(=O)[C@H](CC(=O)O)NC(=O)CNC(=O)CN)C(=O)N[C@@H](Cc1ccccc1)C(=O)N[C@@H](Cc1ccccc1)C(N)=O [ArSK/CCK2] (H-GGDDQ[sY]GFGLFF-NH2; N-terminus assumed) | 0.12 nM | concentration-dependent contraction | not significantly different | ~ 40% | caused contraction | do not cross-react | 
3 | CC(C)C[C@H](NC(=O)CNC(=O)[C@H](Cc1ccccc1)NC(=O)CNC(=O)[C@H](Cc1ccc(O)cc1)NC(=O)[C@H](CCC(N)=O)NC(=O)[C@H](CC(=O)O)NC(=O)[C@H](CC(=O)O)NC(=O)CNC(=O)CN)C(=O)N[C@@H](Cc1ccccc1)C(=O)N[C@@H](Cc1ccccc1)C(N)=O [ArSK/CCK2(ns)] (H-GGDDQYGFGLFF-NH2; N-terminus assumed) | 48000 nM | modest contraction |  |  | no effect | do not cross-react | five to six orders of magnitude less potent
